System: T1, Ant laccase
T1 construct: gene copA
Assay: spectrophotometric oxidation assay at […] nm, Michaelis-Menten fit
Assay type: biochemical
Details: 50 mM sodium acetate, pH 5.0, 20°C; partially purified preparation SNP30

## CCn1c(=NN=c2sc3cc(S(=O)(=O)O)ccc3n2CC)sc2cc(S(=O)(=O)O)ccc21 [ABTS, 2,2′-azino-bis (3-ethylbenzothiazoline-6-sulfonic acid)]
  Km: ~2000 µM

— paper PMC9950745, “A novel promising laccase from the psychrotolerant and halotolerant Antarctic marine Halomonas sp. M68 strain” (Frontiers in Microbiology, 2023)
